Measured values published in patent US20190321291A1, “3D Printing and Drug Delivery” (Biogelx Limited, priority 2016, published 2019).
Values joined by “and” are separate entries in the source; they are usually repeats but may differ in a detail not shown here. Equal values may be shown once.

Test: Drug release assay from Fmoc-FF/S hydrogel into PBS release buffer, HPLC analysis
Format: physicochemical
Conditions: for release profile from the hydrogel compared with control PBS solution: Fmoc-FF/S hydrogel; for duration of sustained release from the gel: 7-day study; for time over which significant drug concentration continued to be released: gel
Method: (§1) An 1100 Series high-performance liquid chromatography pump (Agilent, USA) was used for the analysis which was performed using acetonitrile with 0.1% TFA and water with 0.1% TFA. […] This concentration was kept constant until 16 mins; after that the gradient was decreased, reaching 40% (v/v) acetonitrile in water at 19 mins. The data was then processed manually using the software ‘Agilent Chemstation.’
The triplicate samples of release buffer were analysed by HPLC, and for the peaks corresponding to each model drug compound the peak area was measured. The average peak area was recorded, and using a standard curve prepared for each compound the concentration of each was determined.
At each of the specified time points the release buffer remaining in the wells was transferred to HPLC vials and stored at 4° C. until HPLC analysis was performed.
as §1, with “mins when” for “mins; after that”, “decreased to” for “decreased, reaching”
The triplicate samples of release buffer were analysed by HPLC, and for the peaks corresponding to each model drug compound the peak area was measured. The average peak area was recorded, and using standard curve prepared for each compound the concentration of each was determined.

[1] = 30 min, 2 mM control solution of drug in PBS, release buffer PBS 37° C.
[2] = 30 min, drug in Fmoc-FF/S gel, release buffer PBS 37° C.

| Structure (SMILES) | release profile from the hydrogel compared with control PBS solution | Concentration (ug/mL) Control [1] | Concentration (ug/mL) Gel [2] | Concentration (ug/mL) Gel (3 h, Fmoc-FF/S gel) | Concentration (ug/mL) Control (3 h, control solution in PBS) | Concentration (ug/mL) Gel (6 h, Fmoc-FF/S gel) | Concentration (ug/mL) Control (6 h, control solution in PBS) | Concentration (ug/mL) Gel (9 h, Fmoc-FF/S gel) | Concentration (ug/mL) Control (9 h, control solution in PBS) | Concentration (ug/mL) Gel (24 h, Fmoc-FF/S gel) | Concentration (ug/mL) Control (24 h, control solution in PBS) | Concentration (ug/mL) Gel (48 h, Fmoc-FF/S gel) | Concentration (ug/mL) Control (48 h, control solution in PBS) | Concentration (ug/mL) Gel (72 h, Fmoc-FF/S gel) | Concentration (ug/mL) Control (72 h, control solution in PBS) | Concentration (ug/mL) Gel (5 d, Fmoc-FF/S gel) | Concentration (ug/mL) Control (5 d, control solution in PBS) | Concentration (ug/mL) Gel (7 d, Fmoc-FF/S gel) | Concentration (ug/mL) Control (7 d, control solution in PBS) | duration of sustained release from the gel (Fmoc-FF/S gel) | other results |
| --- | --- | --- | --- | --- | --- | --- | --- | --- | --- | --- | --- | --- | --- | --- | --- | --- | --- | --- | --- | --- | --- |
| CC(C)n1c(/C=C/[C@H](O)C[C@H](O)CC(=O)O)c(-c2ccc(F)cc2)c2ccccc21 (racemic) [Fluvastatin] | slower | – | – | – | – | – | – | – | – | – | – | – | – | – | – | – | – | – | – | – | – |
| CC(C)NCC(O)COc1ccc(CCOCC2CC2)cc1 (stereo not drawn) [Betaxolol] | – | 10.34 µg/mL | 0.67 µg/mL | 9.08 µg/mL | 22.71 µg/mL | 6.37 µg/mL | 0.90 µg/mL | 2.98 µg/mL | 0.07 µg/mL | 5.15 µg/mL | 0 µg/mL | 1.49 µg/mL | 0 µg/mL | 0.27 µg/mL | 0 µg/mL | 0.11 µg/mL | 0 µg/mL | 0 µg/mL | 0 µg/mL | 5 days | release time from the gel (10 mM Fmoc-FF/S gel): 5 days; release time from the control insert (control solution in PBS): 9 h |
| CC[C@H](C)C(=O)O[C@H]1C[C@H](O)C=C2C=C[C@H](C)[C@H](CC[C@@H](O)C[C@@H](O)CC(=O)O)[C@H]21 [Pravastatin] | slower | – | – | – | – | – | – | – | – | – | – | – | – | – | – | – | – | – | – | – | – |
| CC(C)NCC(O)COc1cccc2ccccc12 (stereo not drawn) [Propranolol] | altered significantly | 17.8 µg/mL | 0.03 µg/mL | 7.02 µg/mL | 36.4 µg/mL | 5.38 µg/mL | 0.06 µg/mL | 4.61 µg/mL | 0 µg/mL | 7.78 µg/mL | 0 µg/mL | 7.49 µg/mL | 0 µg/mL | 4.02 µg/mL | 0 µg/mL | 3.81 µg/mL | 0 µg/mL | 2.05 µg/mL | 0 µg/mL | > 7 days and 7 days | time by which drug release was below measurable limits (control): ≤ 9 h; time over which significant drug concentration continued to be released (concentration of the peptides 10 mM): ≥ 72 h; time over which significant drug concentration continued to be released (concentration of the peptides 40 mM): ≥ 72 h |
| C=C[C@H]1C[N@]2CC[C@H]1C[C@@H]2[C@@H](O)c1ccnc2ccc(OC)cc12 [Quinidine] | – | – | – | – | – | – | – | – | – | – | – | – | – | – | – | – | – | – | – | 7 days | drug still present in the remaining gel residue at the end of the experiment (10 mM Fmoc-FF/S gel, HPLC, end of 7-day study): 4.5%; release time from the control insert (control solution in PBS): 9 h; total release corresponding to control results (control solution in PBS): 85% |
| CC(C)NCC(O)c1ccc(NS(C)(=O)=O)cc1 (stereo not drawn) [Sotalol] | slower | – | – | – | – | – | – | – | – | – | – | – | – | – | – | – | – | – | – | – | – |
